These molecules were tested against T1, PRMT5/MEP50 (Homo sapiens, UniProt O14744) (assay: PRMT5 Biochemical Assay (PRMT5/MEP50 enzyme assay on peptide substrate, 3H-SAM Flashplate)). Settings: Table D-2; read-out: Biochemical IC50.
T1 construct: Expressed full-length human Flag-PRMT5/6His-MeP50 protein complex was purified; made in house; host or cells: Spodoptera frugiperda (SF9) insect cells, baculovirus (pDEST8)
T1 sequence (O14744 with tags, fused parts or gaps): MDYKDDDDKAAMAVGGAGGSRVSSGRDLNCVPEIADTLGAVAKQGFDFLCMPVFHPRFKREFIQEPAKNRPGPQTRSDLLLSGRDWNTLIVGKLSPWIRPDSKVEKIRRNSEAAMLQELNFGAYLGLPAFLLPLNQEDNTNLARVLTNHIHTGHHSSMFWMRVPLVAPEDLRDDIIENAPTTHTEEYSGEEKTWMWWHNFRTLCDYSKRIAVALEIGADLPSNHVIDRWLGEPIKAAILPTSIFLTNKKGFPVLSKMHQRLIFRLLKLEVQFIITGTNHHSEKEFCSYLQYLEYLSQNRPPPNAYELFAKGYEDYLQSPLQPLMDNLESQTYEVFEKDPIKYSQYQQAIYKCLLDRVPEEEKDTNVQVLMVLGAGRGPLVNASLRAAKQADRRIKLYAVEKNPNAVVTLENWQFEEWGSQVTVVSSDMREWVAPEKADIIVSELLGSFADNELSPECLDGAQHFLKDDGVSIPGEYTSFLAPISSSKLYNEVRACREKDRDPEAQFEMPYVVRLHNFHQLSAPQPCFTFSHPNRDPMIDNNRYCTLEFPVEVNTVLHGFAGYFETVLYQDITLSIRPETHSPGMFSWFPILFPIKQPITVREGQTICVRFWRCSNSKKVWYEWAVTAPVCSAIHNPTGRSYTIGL
T1 sequence (Q9BQA1 with tags, fused parts or gaps partner limits assumed): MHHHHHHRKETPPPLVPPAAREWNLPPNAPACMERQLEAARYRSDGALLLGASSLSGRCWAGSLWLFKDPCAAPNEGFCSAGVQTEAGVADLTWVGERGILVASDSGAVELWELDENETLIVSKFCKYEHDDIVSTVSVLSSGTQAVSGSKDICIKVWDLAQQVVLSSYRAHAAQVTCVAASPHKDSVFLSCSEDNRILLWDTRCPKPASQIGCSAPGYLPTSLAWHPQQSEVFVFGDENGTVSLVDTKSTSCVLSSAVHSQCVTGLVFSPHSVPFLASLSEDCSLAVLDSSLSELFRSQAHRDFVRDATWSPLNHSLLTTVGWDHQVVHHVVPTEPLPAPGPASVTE

| SMILES | IC50 |
| --- | --- |
| COC(COc1cccc(CNC2CCCC2)c1)CN1CCc2ccccc2C1 (centres unmarked) [Compound D32] | 1000 to 10000 nM |
| OCc1cccc(-c2cccc(OCC(O)CN3CCc4ccccc4C3)c2)c1 (centres unmarked) [Compound D72] | 101 to 1000 nM |
| COc1cccc(-c2cccc(OCC(O)CN3CCc4ccccc4C3)c2)c1 (centres unmarked) [Compound D74] | 101 to 1000 nM |
| COc1ccc(-c2cccc(OCC(O)CN3CCc4ccccc4C3)c2)cc1 (centres unmarked) [Compound D75] | 101 to 1000 nM |
| CC1c2ccccc2CCN1CC(O)COc1cccc(-c2ccc3ncn(C)c3c2)c1 (centres unmarked) [Compound D80] | 101 to 1000 nM |
| CC(C)n1cnc2ccc(-c3cccc(OCC(O)CN4CCc5ccccc5C4)c3)cc21 (centres unmarked) [Compound D81] | 101 to 1000 nM |
| COc1ccc(Cn2cnc3ccc(-c4cccc(OCC(O)CN5CCc6ccccc6C5)c4)cc32)cc1 (centres unmarked) [Compound D82] | 101 to 1000 nM |
| OC(COc1cccc(-c2ccc3nc[nH]c3c2)c1)CN1CCc2ccccc2C1 (centres unmarked) [Compound D83] | 101 to 1000 nM |
| OC(COc1cccc(-c2ccc3nn[nH]c3c2)c1)CN1CCc2ccccc2C1 (centres unmarked) [Compound D84] | 101 to 1000 nM |
| OC(COc1cccc(-c2ccc3c(c2)OCCO3)c1)CN1CCc2ccccc2C1 (centres unmarked) [Compound D85] | 101 to 1000 nM |
| OC(COc1cccc(-c2cccc3c2oc2ccccc23)c1)CN1CCc2ccccc2C1 (centres unmarked) [Compound D86] | 101 to 1000 nM |
| COc1ccc(-c2cccc(OCC(O)CN3CCc4ccccc4C3)c2)c(Cl)c1 (centres unmarked) [Compound D88] | 101 to 1000 nM |
| OC(COc1cccc(-c2cnc3ccccc3c2)c1)CN1CCc2ccccc2C1 (centres unmarked) [Compound D89] | 101 to 1000 nM |
| COc1ccc(-c2cccc(OCC(O)CN3CCc4ccccc4C3)c2)c(C)c1 (centres unmarked) [Compound D90] | 101 to 1000 nM |
| OC(COc1cccc(-c2ccccc2Cl)c1)CN1CCc2ccccc2C1 (centres unmarked) [Compound D92] | 101 to 1000 nM |
| OC(COc1cccc(-c2ccc3ncn(C4CNC4)c3c2)c1)CN1CCc2ccccc2C1 (centres unmarked) [Compound D208] | 101 to 1000 nM |
| Cn1ncc2c1CN(c1cccc(OCC(O)CN3CCc4ccccc4C3)c1)CC2 (centres unmarked) [Compound D216] | 101 to 1000 nM |

| SMILES | IC50 |
| --- | --- |
| Cn1cnc2ccc(-c3cc(NCC(O)CN4CCc5ccccc5C4)ccn3)cc21 (centres unmarked) [Compound D217] | 101 to 1000 nM |
| O=C(Cn1ccc2cnc(-c3cccc(OCC(O)CN4CCc5ccccc5C4)c3)nc21)N1CCOCC1 (centres unmarked) [Compound D222] | 101 to 1000 nM |
| Cn1cc2ccc(-c3cc(NCC(O)CN4CCc5ccccc5C4)ncn3)cc2n1 (centres unmarked) [Compound D224] | 101 to 1000 nM |
| OC(CNc1cccc(-c2cccc3[nH]cnc23)c1)CN1CCc2ccccc2C1 (centres unmarked) [Compound D235] | 101 to 1000 nM |
| Cn1ccc2ccc(-c3cc(NCC(O)CN4CCc5ccccc5C4)ncn3)cc21 (centres unmarked) [Compound D237] | 101 to 1000 nM |
| CC(=O)N1CCC(n2cnc3ccc(-c4ccnc(NCC(O)CN5CCc6ccccc6C5)c4)cc32)CC1 (centres unmarked) [Compound D242] | 101 to 1000 nM |
| CC(=O)N1CCC(n2ccc3cnc(-c4cccc(OCC(O)CN5CCc6ccccc6C5)c4)nc32)CC1 (centres unmarked) [Compound D243] | 101 to 1000 nM |
| CN1CCN(C(=O)Cn2ccc3cnc(-c4cccc(OCC(O)CN5CCc6ccccc6C5)c4)nc32)CC1 (centres unmarked) [Compound D244] | 101 to 1000 nM |
| Cn1ncc2cnc(-c3cccc(OCC(O)CN4CCc5ccccc5C4)c3)cc21 (centres unmarked) [Compound D248] | 101 to 1000 nM |
| O=C(Cn1cnc2ccc(-c3cccc(OCC(O)CN4CCc5ccccc5C4)c3)cc21)N1CCCCC1 (centres unmarked) [Compound D249] | 101 to 1000 nM |
| CNC(=O)Cn1cnc2ccc(-c3cccc(OCC(O)CN4CCc5ccccc5C4)c3)cc21 (centres unmarked) [Compound D262] | 101 to 1000 nM |
| O=C(Cn1cnc2ccc(-c3cccc(OCC(O)CN4CCc5ccccc5C4)c3)cc21)N1CCCC1 (centres unmarked) [Compound D263] | 101 to 1000 nM |
| O=C(Cn1cnc2ccc(-c3cccc(OCC(O)CN4CCc5ccccc5C4)c3)cc21)N1CCOCC1 (centres unmarked) [Compound D264] | 101 to 1000 nM |
| CN1CCN(C(=O)Cn2cnc3ccc(-c4cccc(OCC(O)CN5CCc6ccccc6C5)c4)cc32)CC1 (centres unmarked) [Compound D270] | 101 to 1000 nM |
| Cn1cnc2ccc(-c3cc(NCC(O)CN4CCc5ccccc5C4)n[nH]3)cc21 (centres unmarked) [Compound D271] | 101 to 1000 nM |
| Cn1cnc2cc(-c3cc(NCC(O)CN4CCc5ccccc5C4)n[nH]3)ccc21 (centres unmarked) [Compound D272] | 101 to 1000 nM |

Other lines, results leading:

| IC50 | SMILES |
| --- | --- |
| 101 to 1000 nM | O=C(c1ccc(Cn2nccc2-c2ccc(OCC(O)CN3CCc4ccccc4C3)cc2)cc1)N1CCCC1 (centres unmarked) [Compound D31] |
| 101 to 1000 nM | OC(CNc1cccc(CNC2CCCC2)c1)CN1CCc2ccccc2C1 (centres unmarked) [Compound D39] |
| 101 to 1000 nM | OC(COc1cccc(-c2ccccc2)c1)CN1CCc2ccccc2C1 (centres unmarked) [Compound D43] |
| < 100 nM | Cn1cnc2ccc(-c3cccc(OCC(O)CN4CCc5ccccc5C4)c3)cc21 (centres unmarked) [Compound D45] |
| < 100 nM | OC(COc1ccc(C2CCCNC2)cc1)CN1CCc2ccccc2C1 (centres unmarked) [Compound D47] |
| 101 to 1000 nM | CC(Oc1cccc(CNC2CCCC2)c1)C(O)CN1CCc2ccccc2C1 (centres unmarked) [Compound D49] |
| 101 to 1000 nM | CN(CC(O)CN1CCc2ccccc2C1)c1cccc(CNC2CCCC2)c1 (centres unmarked) [Compound D53] |
| 101 to 1000 nM | OC(COc1cccc(-c2ccc3cn[nH]c3c2)c1)CN1CCc2ccccc2C1 (centres unmarked) [Compound D58] |
| 101 to 1000 nM | OC(COc1cccc(-c2ccc3c(c2)OCO3)c1)CN1CCc2ccccc2C1 (centres unmarked) [Compound D59] |
| 101 to 1000 nM | Cn1cnc2cc(-c3cccc(OCC(O)CN4CCc5ccccc5C4)c3)ccc21 (centres unmarked) [Compound D60] |
| 101 to 1000 nM | OC(COc1cccc(-c2cc(C(F)(F)F)ccc2Cl)c1)CN1CCc2ccccc2C1 (centres unmarked) [Compound D62] |
| 101 to 1000 nM | CS(=O)(=O)c1ccc(-c2cccc(OCC(O)CN3CCc4ccccc4C3)c2)cc1 (centres unmarked) [Compound D63] |
| < 100 nM | OC(COc1cccc(-c2cccc3cccnc23)c1)CN1CCc2ccccc2C1 (centres unmarked) [Compound D65] |
| 101 to 1000 nM | CC(=O)c1cccc(-c2cccc(OCC(O)CN3CCc4ccccc4C3)c2)c1 (centres unmarked) [Compound D67] |
| 101 to 1000 nM | OC(COc1cccc(-c2cccc(F)c2F)c1)CN1CCc2ccccc2C1 (centres unmarked) [Compound D68] |
| < 100 nM | OC(COc1cccc(-c2ccc3ncn(C4CCNC4)c3c2)c1)CN1CCc2ccccc2C1 (centres unmarked) [Compound D209] |
| < 100 nM | Cn1cc2ccc(-c3cccc(OCC(O)CN4CCc5ccccc5C4)c3)nc2n1 (centres unmarked) [Compound D210] |
| < 100 nM | CN1CC(n2cnc3ccc(-c4cccc(OCC(O)CN5CCc6ccccc6C5)c4)cc32)C1 (centres unmarked) [Compound D218] |
| < 100 nM | CN1CCC(n2cnc3ccc(-c4cccc(OCC(O)CN5CCc6ccccc6C5)c4)cc32)C1 (centres unmarked) [Compound D219] |
| < 100 nM | OC(COc1cccc(-c2ccc3ncn(C4CCNCC4)c3c2)c1)CN1CCc2ccccc2C1 (centres unmarked) [Compound D220] |
| < 100 nM | CN1CCC(n2cnc3ccc(-c4cccc(OCC(O)CN5CCc6ccccc6C5)c4)cc32)CC1 (centres unmarked) [Compound D221] |
| < 100 nM | OC(COc1cccc(-c2cccc3[nH]cnc23)c1)CN1CCc2ccccc2C1 (centres unmarked) [Compound D223] |
| < 100 nM | Cn1ncc2ccc(-c3ccnc(NCC(O)CN4CCc5ccccc5C4)c3)cc21 (centres unmarked) [Compound D226] |
| < 100 nM | O=C(Cn1ccc2cnc(-c3ccnc(NCC(O)CN4CCc5ccccc5C4)c3)nc21)N1CCCC1 (centres unmarked) [Compound D233] |

| IC50 | SMILES |
| --- | --- |
| < 100 nM | O=C(Cn1ccc2cnc(-c3ccnc(NCC(O)CN4CCc5ccccc5C4)c3)nc21)N1CCOCC1 (centres unmarked) [Compound D234] |
| < 100 nM | Cn1cc2ccc(-c3ccnc(NCC(O)CN4CCc5ccccc5C4)c3)cc2n1 (centres unmarked) [Compound D236] |
| < 100 nM | Cn1cnc2ccc(-c3ccnc(NCC(O)CN4CCc5ccccc5C4)c3)nc21 (centres unmarked) [Compound D238] |
| < 100 nM | Cn1ccc2cnc(-c3ccnc(NCC(O)CN4CCc5ccccc5C4)c3)nc21 (centres unmarked) [Compound D239] |
| < 100 nM | OC(CNc1cc(-c2ccc3ncn(C4CCNC4)c3c2)ccn1)CN1CCc2ccccc2C1 (centres unmarked) [Compound D240] |
| < 100 nM | OC(CNc1cc(-c2ccc3ncn(C4CCNCC4)c3c2)ccn1)CN1CCc2ccccc2C1 (centres unmarked) [Compound D241] |
| < 100 nM | CNC(=O)Cn1ccc2cnc(-c3ccnc(NCC(O)CN4CCc5ccccc5C4)c3)nc21 (centres unmarked) [Compound D245] |
| < 100 nM | O=C(Cn1ccc2cnc(-c3ccnc(NCC(O)CN4CCc5ccccc5C4)c3)nc21)N1CCCCC1 (centres unmarked) [Compound D246] |
| < 100 nM | CN1CCN(C(=O)Cn2ccc3cnc(-c4ccnc(NCC(O)CN5CCc6ccccc6C5)c4)nc32)CC1 (centres unmarked) [Compound D247] |
| < 100 nM | CN1CCC(n2cnc3ccc(-c4ccnc(NCC(O)CN5CCc6ccccc6C5)c4)cc32)C1 (centres unmarked) [Compound D250] |
| < 100 nM | OC(CNc1cc(-c2ccc3ncn(C4CCOCC4)c3c2)ccn1)CN1CCc2ccccc2C1 (centres unmarked) [Compound D251] |
| < 100 nM | CN1CCC(n2cnc3ccc(-c4ccnc(NCC(O)CN5CCc6ccccc6C5)c4)cc32)CC1 (centres unmarked) [Compound D252] |
| < 100 nM | OC(COc1cccc(-c2ncc3ccn(C4CCNCC4)c3n2)c1)CN1CCc2ccccc2C1 (centres unmarked) [Compound D253] |
| < 100 nM | OC(CNc1cc(-c2ncc3ccn(C4CNC4)c3n2)ccn1)CN1CCc2ccccc2C1 (centres unmarked) [Compound D254] |
| < 100 nM | OC(CNc1cc(-c2ncc3ccn(C4CCNCC4)c3n2)ccn1)CN1CCc2ccccc2C1 (centres unmarked) [Compound D255] |
| < 100 nM | CC(=O)N1CCC(n2ccc3cnc(-c4ccnc(NCC(O)CN5CCc6ccccc6C5)c4)nc32)CC1 (centres unmarked) [Compound D256] |
| < 100 nM | O[C@@H](COc1cccc(-c2cccc3cccnc23)c1)CN1CCc2ccccc2C1 [Compound D257] |
| < 100 nM | Cn1cc2ccc(-c3cccc(NCC(O)CN4CCc5ccccc5C4)c3)nc2n1 (centres unmarked) [Compound D261] |
| < 100 nM | OC(CNc1cc(-c2ccc3ncn(C4COC4)c3c2)ccn1)CN1CCc2ccccc2C1 (centres unmarked) [Compound D265] |
| < 100 nM | Cc1ncc2ccc(-c3cccc(OCC(O)CN4CCc5ccccc5C4)c3)cn12 (centres unmarked) [Compound D266] |
| < 100 nM | OC(COc1cccc(-c2ccc3ncn(C4COC4)c3c2)c1)CN1CCc2ccccc2C1 (centres unmarked) [Compound D269] |
| < 100 nM | CC(=O)N(CC(O)CN1CCc2ccccc2C1)c1cccc(-c2ccc3ncn(C)c3c2)c1 (centres unmarked) [Compound D273] |
| < 100 nM | Cn1cnc2ccc(-c3ccnc(NC[C@H](O)CN4CCc5ccccc5C4)c3)cc21 [Compound D275] |

Reference: US20150344457A1, “METHODS OF INHIBITING PRMT5” (EPIZYME, INC., priority 2012, published 2015)
